In ChEMBL document CHEMBL3865846, “Synthesis and biological evaluation of ricinoleic acid-based lipoamino acid derivatives” (Bioorg Med Chem Lett, 2016):
Converted amounts (≈) assume the structure as drawn.

What was measured:
Format in all cases: functional
Candida albicans [1] = assay: Antimicrobial activity against Candida albicans MTCC3018 measured after 24 hrs by well-diffusion method; conditions: MTCC3018, 24 h
Candida albicans [2] = assay: Antimicrobial activity against Candida albicans MTCC854 measured after 24 hrs by well-diffusion method; conditions: MTCC854, 24 h
Bacillus subtilis [3] = assay: Bactericidal activity against Bacillus subtilis MTCC121 measured after 24 hrs; conditions: MTCC121, 24 h
Candida albicans [4] = assay: Antimicrobial activity against Candida albicans MTCC183 measured after 24 hrs by well-diffusion method; conditions: MTCC183, 24 h
Bacillus subtilis [5] = assay: Antimicrobial activity against Bacillus subtilis MTCC121 measured after 24 hrs by well-diffusion method; conditions: MTCC121, 24 h
Candida albicans [6] = assay: Antimicrobial activity against Candida albicans MTCC4748 measured after 24 hrs by well-diffusion method; conditions: MTCC4748, 24 h
Escherichia coli = assay: Antimicrobial activity against Escherichia coli MTCC739 measured after 24 hrs by well-diffusion method; conditions: MTCC739, 24 h
Candida parapsilosis = assay: Antimicrobial activity against Candida parapsilosis MTCC1744 measured after 24 hrs by well-diffusion method; conditions: Lodderomyces parapsilosis, MTCC1744, 24 h
Candida albicans [7] = assay: Antimicrobial activity against Candida albicans MTCC7315 measured after 24 hrs by well-diffusion method; conditions: MTCC7315, 24 h
Staphylococcus aureus [8] = assay: Bactericidal activity against Staphylococcus aureus MLS16 MTCC2940 measured after 24 hrs; conditions: MLS16 MTCC2940, 24 h
Staphylococcus aureus [9] = assay: Bactericidal activity against Staphylococcus aureus MTCC96 measured after 24 hrs; conditions: MTCC96, 24 h
Candida albicans [10] = assay: Antimicrobial activity against Candida albicans MTCC1637 measured after 24 hrs by well-diffusion method; conditions: MTCC1637, 24 h
Micrococcus luteus [11] = assay: Antimicrobial activity against Micrococcus luteus MTCC2470 measured after 24 hrs by well-diffusion method; conditions: MTCC2470, 24 h
Micrococcus luteus [12] = assay: Bactericidal activity against Micrococcus luteus MTCC2470 measured after 24 hrs; conditions: MTCC2470, 24 h
Staphylococcus aureus [13] = assay: Antimicrobial activity against Staphylococcus aureus MTCC96 measured after 24 hrs by well-diffusion method; conditions: MTCC96, 24 h
Staphylococcus aureus [14] = assay: Antimicrobial activity against Staphylococcus aureus MLS16 MTCC2940 measured after 24 hrs by well-diffusion method; conditions: MLS16 MTCC2940, 24 h
Candida albicans [15] = assay: Antimicrobial activity against Candida albicans MTCC227 measured after 24 hrs by well-diffusion method; conditions: MTCC227, 24 h
Candida albicans [16] = assay: Antimicrobial activity against Candida albicans MTCC3958 measured after 24 hrs by well-diffusion method; conditions: MTCC3958, 24 h
Raoultella planticola = assay: Antimicrobial activity against Klebsiella planticola MTCC530 measured after 24 hrs by well-diffusion method; conditions: MTCC530, 24 h
Candida albicans [17] = assay: Antimicrobial activity against Candida albicans MTCC3017 measured after 24 hrs by well-diffusion method; conditions: MTCC3017, 24 h
Pseudomonas aeruginosa = assay: Antimicrobial activity against Pseudomonas aeruginosa MTCCM2453 measured after 24 hrs by well-diffusion method; conditions: MTCCM2453, 24 h

SMILES | MIC (Candida albicans [1]) | MIC (Candida albicans [2]) | MIC (Candida albicans [4]) | MIC (Bacillus subtilis [5]) | MIC (Candida albicans [6]) | MIC (Escherichia coli) | MIC (Candida albicans [7]) | MIC (Candida albicans [10]) | MIC (Micrococcus luteus [11]) | MIC (Staphylococcus aureus [13]) | MIC (Staphylococcus aureus [14]) | MIC (Candida albicans [15]) | MIC (Candida albicans [16]) | MIC (Raoultella planticola) | MIC (Candida albicans [17]) | MIC (Pseudomonas aeruginosa) | also measured
CCCCCCC(C/C=C\CCCCCCCC(=O)OC)NC(=O)[C@H](C)N (some centres not stated) | 15.6 µg/mL (≈ 40.8 µM) | 15.6 µg/mL (≈ 40.8 µM) | 15.6 µg/mL (≈ 40.8 µM) | 15.6 µg/mL (≈ 40.8 µM) | 15.6 µg/mL (≈ 40.8 µM) | > 125 µg/mL | 15.6 µg/mL (≈ 40.8 µM) | 15.6 µg/mL (≈ 40.8 µM) | 31.2 µg/mL (≈ 81.5 µM) | 7.8 µg/mL (≈ 20.4 µM) | 15.6 µg/mL (≈ 40.8 µM) | 15.6 µg/mL (≈ 40.8 µM) | 7.8 µg/mL (≈ 20.4 µM) | > 125 µg/mL | 15.6 µg/mL (≈ 40.8 µM) | > 125 µg/mL | MBC (Bacillus subtilis [3]): 15.6 µg/mL (≈ 40.8 µM); MIC (Candida parapsilosis): 7.8 µg/mL (≈ 20.4 µM); MBC (Staphylococcus aureus [8]): 15.6 µg/mL (≈ 40.8 µM); MBC (Staphylococcus aureus [9]): 15.6 µg/mL (≈ 40.8 µM); MBC (Micrococcus luteus [12]): 15.6 µg/mL (≈ 40.8 µM)
CCCCCCC(C/C=C\CCCCCCCC(=O)OC)NC(=O)[C@@H](N)[C@@H](C)CC (some centres not stated) | > 125 µg/mL | > 125 µg/mL | > 125 µg/mL | > 125 µg/mL | > 125 µg/mL | > 125 µg/mL | > 125 µg/mL | > 125 µg/mL | > 125 µg/mL | > 125 µg/mL | > 125 µg/mL | > 125 µg/mL | > 125 µg/mL | > 125 µg/mL | > 125 µg/mL | > 125 µg/mL | –
